Test results reported in patent US20100041704A1, “DERMAL COMPOSITIONS OF SUBSTITUTED AMIDES AND THE USE THEREOF AS MEDICATION FOR PAIN AND PRURITUS” (priority 2007, published 2010).
Where a name gives a salt, the structure may show the parent alone.

Columns and labels:
[1] = tested on: nerve ligation model in the rat (L5 and L6 spinal roots of the sciatic nerve); test: nerve ligation model of neuropathic pain in the rat (tail flick, pinprick allodynia); assay type: in vivo; details: for activity in animal model of neuropathic pain: rat nerve ligation model
[2] = saturation solubility in pentane (model propellant); assay type: physicochemical; details: base
Description: In addition to the solubility experiments shown above, the solubilities of bupivacaine and ropivacaine were also investigated using pentane since this is a low molecular weight hydrocarbon, commonly used to model a GRAS (generally recognized as safe) aerosol propellant such as butane.

[3] = tested on: mice with diet-induced pruritus; test: pruritus model: mice fed diet low in Mg2+ and Zn2+, scratching; details: mouse, in vivo
sciatic nerve = sciatic nerve block in the rat, duration by algesimeter; assay type: in vivo; details: for duration of sensory nerve block / local anesthesia: injection of 0.5% solution, N=10-12
[4] = tested on: guinea pigs (dermal anesthesia); test: potentiation study: dermal anesthesia in guinea pigs, pinprick methodology; assay type: in vivo; details: guinea pigs N=8
[5] = tested on: human leukocytes (buffy coat); test: inhibition of A23187-stimulated histamine release from human leukocytes; assay type: cell-based; details: A23187 5 μM, 20 min/37° C.
Method: In the present studies, histamine was the marker compound for algesic mediators that are released into the tissues of patients suffering from neuropathic pain. The inhibition of stimulated histamine release from human leukocytes (buffy coat) by test articles was studied. Leukocytes were obtained from healthy volunteers and histamine release was induced by incubation (20 min/37° C.) with the calcium ionophore A23187 (5 μM) in the presence or absence of a test article. Histamine was analyzed by enzyme-immuno assays, using commercially available kits and a microplate reader (MRX, Dynatech).

[6] = saturation solubility in topical solvents/penetration enhancers; assay type: physicochemical
Method: Melting point ranges were determined with a capillary apparatus (Stuart) using a heating rate of 1° C./min. Moisture was measured using Karl Fischer titration (Schott TitroLine KF). Solubility was measured by adding an excess of solid to the solvent and allowing this suspension to equilibrate at 19-21° C. for at least 24 hours. […]
Solubility was measured by adding an excess of solid to the solvent and allowing this suspension to equilibrate at 19-21° C. for at least 24 hours. […]

[7] = concentrations up to 0.075 percent (Mason L et al. 2004); cited from earlier work
[8] = ternary solvent mixtures with water as anti-solvent; assay type: physicochemical; details: 1 ml polyethylene glycol + 1 ml ethanol, presence of 0.6 ml water
[9] = tested on: New Zealand White rabbits (skin); test: dermal irritation studies; assay type: in vivo, rabbit; details: DMSO at lower concentrations (<90%) in combination with bupivacaine or ropivacaine
Method: Dermal irritation studies are performed in male and female New Zealand White rabbits (Harlan). This albino rabbit is recommended as the preferred species because of its size, skin permeability and extensive database. The number of animals being used in these studies is consistently increasing as new compositions are tested and previously tested compositions are being retested as references. Within 24 hours before the initiation of the test, fur is removed from the upper and lower dorsal trunks by clipping. Care is taken to avoid abrading the skin and only animals with healthy intact skin are being used. Histamine is used as the pruritic irritant. The compositions to be tested are applied to the skin of the animals for 60 min (±5 min). The new compositions, with or without bupivacaine 5 to 10 percent, are applied on 6-ply gauze pads (4.5 cm×4.5 cm) and held in place with Tegaderm® dressing for the entire exposure duration. After the exposure period, residual test article is removed with water or other appropriate solvent, without altering the existing response or the integrity of the epidermis. Prior to dosing and repeatedly post dosing, dermal irritation is scored for erythema/eschar and edema.

[10] = in diisopropyl adipate, 19-21° C., at least 24 hours, HPLC
[11] = in ethanol, 19-21° C., at least 24 hours, HPLC
[12] = in hexylene glycol, 19-21° C., at least 24 hours, HPLC
[13] = in isopropyl alcohol, 19-21° C., at least 24 hours, HPLC
[14] = in isopropyl myristate, 19-21° C., at least 24 hours, HPLC
[15] = in propylene glycol, 19-21° C., at least 24 hours, HPLC

Compound: CCCN1CCCCC1C(=O)Nc1c(C)cccc1C (stereo not shown) [ropivacaine, RS—N-(2,6-dimethylphenyl)-1-propylpiperidine-2-carboxamide]
- activity in animal model of neuropathic pain [1]: had activity
- Saturation solubility in pentane [2]: >0.1%
- antipruritic activity / safety and efficacy in animal model of pruritus [3]: antipruritic activity

Compound: Cc1cccc(C)c1NC(=O)C1CCCCN1C (stereo not shown) [mepivacaine]
- duration of sensory nerve block / local anesthesia (sciatic nerve; algesimeter (5 gram), rat): approximately 40 min

Compound: CCCCN1CCCCC1C(=O)Nc1c(C)cccc1C (stereo not shown) [bupivacaine, RS—N-(2,6-dimethylphenyl)-1-butylpiperidine-2-carboxamide]
- duration of analgesic activity compared with lidocaine ([1]; neuropathic pain model, single administration): longer duration than that offered by lidocaine
- pain relief after repeated administrations ([1]; repeated administrations): long-lasting (days not hours) pain relief
- anti-allodynic effect (paw withdrawal, pinprick) ([1]; single systemic administration (0.5%), algesimeter set at 5 grams): prolonged anti-allodynic effect
- analgesia, tail-flick test method ([1]; single systemic administration of bupivacaine (0.5%) three days after nerve ligation, tail flick in warm (140° F.) water): 100%
- Saturation solubility in pentane [2]: >0.1%
- antipruritic activity / safety and efficacy in animal model of pruritus [3]: antipruritic activity
- duration of dermal anesthesia ([4]; 5% in DMSO/water in a dermal patch, applied for 60 min, pinprick): 60 ± 5 min
- dose causing motor nerve blocks after injections (sciatic nerve; after injections, doses as low as): ≥ 0.1%
- inhibition of stimulated histamine release [5]: significant inhibitory activity
- potency on histamine release compared with lidocaine [5]: more potent than lidocaine

Compound: CCCCN1CCCCC1C(=O)Nc1c(C)cccc1C (racemic) [Racemic free base]
- Solubility of bupivacaine (% w/w) [6, 10]: 6.2 % w/w
- Solubility of bupivacaine (% w/w) [6, 11]: 36.8 % w/w
- Solubility of bupivacaine (% w/w) [6, 12]: 17.8 % w/w
- Solubility of bupivacaine (% w/w) [6, 13]: 20.5 % w/w
- Solubility of bupivacaine (% w/w) [6, 14]: 3.5 % w/w
- Solubility of bupivacaine (% w/w) [6, 15]: 4.8 % w/w

Compound: COc1cc(CNC(=O)CCCC/C=C/C(C)C)ccc1O [capsaicin]
- dermal anesthesia (in words) ([4]; capsaicin alone, low dose): too low to result in measurable dermal anesthesia
- efficacy of dermal capsaicin [7]: only marginally effective

Compound: CCCCN1CCCC[C@H]1C(=O)Nc1c(C)cccc1C (single isomer, unassigned) [Isomer free base]
- Solubility of bupivacaine (% w/w) [6, 10]: 2.7 % w/w
- Solubility of bupivacaine (% w/w) [6, 11]: 16.5 % w/w
- Solubility of bupivacaine (% w/w) [6, 12]: 8.0 % w/w
- Solubility of bupivacaine (% w/w) [6, 13]: 8.9 % w/w
- Solubility of bupivacaine (% w/w) [6, 14]: 1.6 % w/w
- Solubility of bupivacaine (% w/w) [6, 15]: 2.1 % w/w

Compound: CCN(CC)CC(=O)Nc1c(C)cccc1C [lidocaine]
- activity in animal model of neuropathic pain [1]: had activity
- duration of sensory nerve block / local anesthesia (sciatic nerve; algesimeter (5 gram), rat): approximately 40 min

Compound: CCCN1CCCC[C@H]1C(=O)Nc1c(C)cccc1C [S-ropivacaine free base]
- Solubility, % w/w ([6]; S-ropivacaine free base in diisopropyl adipate, 19-21° C., at least 24 hours): 1.7 % w/w
- Solubility, % w/w ([6]; S-ropivacaine free base in ethanol, 19-21° C., at least 24 hours): 10.0 % w/w
- Solubility, % w/w ([6]; S-ropivacaine free base in hexylene glycol, 19-21° C., at least 24 hours): 5.1 % w/w
- Solubility, % w/w ([6]; S-ropivacaine free base in isopropyl alcohol, 19-21° C., at least 24 hours): 5.2 % w/w
- Solubility, % w/w ([6]; S-ropivacaine free base in isopropyl myristate, 19-21° C., at least 24 hours): 0.9 % w/w
- Solubility, % w/w ([6]; S-ropivacaine free base in propylene glycol, 19-21° C., at least 24 hours): 1.6 % w/w
- solubility compared with bupivacaine free base ([6]; all solvents of Table 6): consistently lower
- solubility in ternary solvent mixture with water as anti-solvent [8]: dramatically decreased

Compound: CCCCN1CCCC[C@H]1C(=O)Nc1c(C)cccc1C (single isomer, unassigned) [Isomer HCl monohydrate]
- Solubility of bupivacaine (% w/w) ([6]; in ethanol, determined gravimetrically): 3.8-4.4^1 % w/w

Compound: CCCCN1CCCCC1C(=O)Nc1c(C)cccc1C.Cl.O (racemic) [Racemic HCl monohydrate]
- Solubility of bupivacaine (% w/w) [6, 11]: 4.3 % w/w
- Solubility of bupivacaine (% w/w) [6, 12]: 2.1 % w/w
- Solubility of bupivacaine (% w/w) [6, 13]: 0.5 % w/w
- Solubility of bupivacaine (% w/w) [6, 15]: 3.2 % w/w

Compound: C[S+](C)[O-] [DMSO, Dimethyl sulfoxide]
- dermal irritation of DMSO with local anesthetic [9]: do not cause increased dermal irritation

Compound: CCCCN1CCCCC1C(=O)Nc1c(C)cccc1C (stereo not shown) [bupivacaine HCl]
- duration of sensory nerve block (sciatic nerve; injection of 0.25% solution, algesimeter (5 gram), rat): 70 ± 5 min
- duration of sensory nerve block / local anesthesia (sciatic nerve; algesimeter (5 gram), rat): 99 ± 7 min
